Reference: ChEMBL document CHEMBL1134130, “Carbonic anhydrase inhibitors: 4-sulfamoyl-benzenecarboxamides and 4-chloro-3-sulfamoyl-benzenecarboxamides with strong topical antiglaucoma properties” (Bioorg Med Chem Lett, 2001)

Assays:
[1] = target: Carbonic anhydrase 1 (Homo sapiens, UniProt P00915)
Description: Binding affinity against human carbonic anhydrase I (hCA I)

[2] = species: Oryctolagus cuniculus
Description: In vivo intraocular pressure (IOP) lowering at 120 min in normotensive rabbits after treatment with one drop (50 uL) 2% solution of CA inhibitor directly into the eye, at 7.0 pH

[3] = system: Oryctolagus cuniculus; assay: In vivo intraocular pressure (IOP) lowering at 0 min in normotensive rabbits after treatment with one drop (50 uL) 2% solution of CA inhibitor directly into the eye, at 7.5 pH; format: functional
[4] = system: Oryctolagus cuniculus; assay: In vivo intraocular pressure (IOP) lowering at 60 min in normotensive rabbits after treatment with one drop (50 uL) 2% solution of CA inhibitor directly into the eye, at 7.0 pH; format: functional
[5] = target: Carbonic anhydrase 2 (Homo sapiens, UniProt P00918)
Description: Binding affinity against human carbonic anhydrase II (hCA -II)

[6] = species: Oryctolagus cuniculus; remark: listed apart in the source
Description: In vivo intraocular pressure (IOP) lowering at 30 min in normotensive rabbits after treatment with one drop (50 uL) 2% solution of CA inhibitor directly into the eye, at 7.0 pH

[7] = target: T1, Carbonic anhydrase 4 (Bos taurus, UniProt Q95323)
T1 sequence (Q95323 whole entry): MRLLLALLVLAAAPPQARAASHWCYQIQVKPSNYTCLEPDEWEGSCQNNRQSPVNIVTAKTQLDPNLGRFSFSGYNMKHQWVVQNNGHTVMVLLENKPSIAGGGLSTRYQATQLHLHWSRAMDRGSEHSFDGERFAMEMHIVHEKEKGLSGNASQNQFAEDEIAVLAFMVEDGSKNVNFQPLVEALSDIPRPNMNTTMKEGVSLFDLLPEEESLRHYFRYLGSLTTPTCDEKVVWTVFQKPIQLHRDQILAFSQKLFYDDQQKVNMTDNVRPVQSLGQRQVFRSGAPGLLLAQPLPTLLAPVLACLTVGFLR
Description: Compound was evaluated for binding affinity against bovine carbonic anhydrase IV (bCA IV)

[8] = species: Oryctolagus cuniculus; remark: listed apart in the source
Description: In vivo intraocular pressure (IOP) lowering at 90 min in normotensive rabbits after treatment with one drop (50 uL) 2% solution of CA inhibitor directly into the eye, at 7.0 pH

[9] = Compound was evaluated for in vitro corneal permeability in cornea intact; format: ADME, tissue-based
[10] = species: Oryctolagus cuniculus; remark: listed apart in the source
Description: Fall of in vivo intraocular pressure (IOP) of glaucomatous rabbits at 30 min after treatment with one drop (50 uL) solution of 2% of CA inhibitor directly into eye

[11] = Compound was evaluated for in vitro corneal permeability in no epithelium; format: ADME, tissue-based, Cornea
[12] = system: Oryctolagus cuniculus; assay: In vivo intraocular pressure (IOP) lowering at 30 min in normotensive rabbits after treatment with one drop (50 uL) 2% solution of CA inhibitor directly into the eye, at 7.5 pH; format: functional
[13] = system: Oryctolagus cuniculus; assay: In vivo intraocular pressure (IOP) lowering at 90 min in normotensive rabbits after treatment with one drop (50 uL) 2% solution of CA inhibitor directly into the eye, at 7.5 pH; format: functional
[14] = species: Oryctolagus cuniculus; remark: listed apart in the source
Description: Fall of in vivo intraocular pressure (IOP) of glaucomatous rabbits at 90 min after treatment with one drop (50 uL) solution of 2% of CA inhibitor directly into eye

[15] = system: Oryctolagus cuniculus; assay: In vivo intraocular pressure (IOP) lowering at 120 min in normotensive rabbits after treatment with one drop (50 uL) 2% solution of CA inhibitor directly into the eye, at 7.5 pH; format: functional
[16] = physchem; conditions: octanol/water
Description: Partition coefficient (logP)

[17] = system: Oryctolagus cuniculus; assay: In vivo intraocular pressure (IOP) lowering at 60 min in normotensive rabbits after treatment with one drop (50 uL) 2% solution of CA inhibitor directly into the eye, at 7.5 pH; format: functional
[18] = species: Oryctolagus cuniculus; remark: listed apart in the source
Description: Fall of in vivo intraocular pressure (IOP) of glaucomatous rabbits at 0 min after treatment with one drop (50 uL) solution of 2% of CA inhibitor directly into eye

[19] = species: Oryctolagus cuniculus; remark: listed apart in the source
Description: Fall of in vivo intraocular pressure (IOP) of glaucomatous rabbits at 60 min after treatment with one drop (50 uL) solution of 2% of CA inhibitor directly into eye

[20] = species: Oryctolagus cuniculus; remark: listed apart in the source
Description: Fall of in vivo intraocular pressure (IOP) of glaucomatous rabbits at 120 min after treatment with one drop (50 uL) solution of 2% of CA inhibitor directly into eye

[21] = species: Oryctolagus cuniculus; remark: listed apart in the source
[22] = system: Oryctolagus cuniculus; assay: In vivo intraocular pressure (IOP) lowering at 0 min in normotensive rabbits after treatment with one drop (50 uL) 2% solution of CA inhibitor directly into the eye, at 7.0 pH; format: functional

Chain of Carbonic anhydrase 1 (P00915 whole entry): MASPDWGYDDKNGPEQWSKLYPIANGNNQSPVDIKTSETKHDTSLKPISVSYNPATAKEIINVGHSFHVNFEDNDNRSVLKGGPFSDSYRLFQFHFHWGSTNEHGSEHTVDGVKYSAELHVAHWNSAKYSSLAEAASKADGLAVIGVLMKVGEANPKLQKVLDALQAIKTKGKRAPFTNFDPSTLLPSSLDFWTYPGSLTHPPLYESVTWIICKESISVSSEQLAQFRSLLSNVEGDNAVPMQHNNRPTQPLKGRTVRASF

Row | Compound | Ki [1] | Delta IOP [2] | Delta IOP [3] | Ki [5] | Delta IOP [6] | Ki [7] | Delta IOP [8] | Km x10e3 [9] | Km x10e3 [11] | logP [16] | further results
1 | NS(=O)(=O)c1ccc(C(=O)Nc2nnc(S)s2)cc1 | 38 nM | 2.1 mmHg | 0 mmHg | 5 nM | 7 mmHg | 14 nM | 3.1 mmHg |  |  |  | Delta IOP [4]: 5 mmHg
2 | NS(=O)(=O)c1nnc(NC(=O)c2ccc(Cl)c(S(N)(=O)=O)c2)s1 | 13 nM |  | 0 mmHg | 10 nM |  | 22 nM |  | 3.1 hr-1 | 7 hr-1 | 1.89 | Delta IOP [10]: 6.4 mmHg; Delta IOP [12]: 2.5 mmHg; Delta IOP [13]: 8.3 mmHg; Delta IOP [14]: 14.2 mmHg; Delta IOP [15]: 7.5 mmHg; Delta IOP [17]: 7.1 mmHg; Delta IOP [18]: 0 mmHg; Delta IOP [19]: 13 mmHg; Delta IOP [20]: 13.3 mmHg
3 | CC(C)C[C@H](NC(=O)c1ccc(S(N)(=O)=O)cc1)C(=O)NCC(=O)O | 400 nM | 8.7 mmHg |  | 9 nM | 3.3 mmHg | 16 nM | 7.8 mmHg | 3.3 hr-1 | 6.4 hr-1 | 1.82 | Delta IOP [21]: 5.2 mmHg; Delta IOP [22]: 0 mmHg
